From US4119784A, “Anionic substituted sulfonamido biphenyls” (American Cyanamid Company, priority 1977, dated 1978)
Counter-ions that a name gives are not always drawn.

Columns and labels:
Type in all cases: biochemical
activated human C1 = experiment: Test, Code 026 (C1 inhibitor); settings: activity in wells of a two-fold serial dilution assay; higher well number indicates higher activity
Text: (§1) An active inhibitor protects C2 from C1 and C4; (ii) Test, Code 035 (C3-C9 inhibitor)--This test determines the ability of the late components of human complement (C3-C9) to lyse EAC 142 in the presence of appropriate dilutions of the test compound. An active inhibitor protects EAC 142 from lysis by human C3-C9; (iii) Test, Code 036 (C-Shunt inhibitor)--In this test human erythrocytes rendered fragile are lysed in autologous serum via the shunt pathway activated by cobra venom factor in the presence of appropriate dilutions of the test compound. Inhibition of the shunt pathway results in failure of lysis; (iv) Forssman Vasculitis Test--Here, the well known complement dependent lesion, Forssman vasculitis, is produced in guinea pigs by intradermal injection of rabbit anti-Forssman antiserum. […]

[1] = system: late components of human complement (C3-C9); experiment: Test, Code 035 (C3-C9 inhibitor); design: key: N = Negative; settings: protection of EAC 142 from lysis by human C3-C9; two-fold serial dilution assay
Text: as §1

[2] = system: shunt pathway activated by cobra venom factor; experiment: Test, Code 036 (C-Shunt inhibitor); settings: human erythrocytes in autologous serum; two-fold serial dilution assay; higher well number indicates higher activity
Text: as §1

O=C(O)c1cc(NS(=O)(=O)c2ccc(-c3ccc(S(=O)(=O)Nc4cc(C(=O)O)cc(C(=O)O)c4)cc3S(=O)(=O)Nc3cc(C(=O)O)cc(C(=O)O)c3)c(S(=O)(=O)Nc3cc(C(=O)O)cc(C(=O)O)c3)c2)cc(C(=O)O)c1 [5,5',5",5'"-[2,2',4,4'-Biphenyltetrayltetrakis(sulfonylimino)[tetraisophthalic acid octasodium salt]
Cl 026 Wells (activated human C1): +7 Wells
C-Late 035 Wells [1]: N
Shunt Inhibition 036 Wells [2]: +3 Wells
